Test results taken from US12617837B2, “Composition for use in treatment of allergic diseases” (UNIVERSITY OF TSUKUBA, priority 2019, dated 2026).
Values belong to the compound of their own block, whether it stands above or below them.

Assays:
[1] = target: T1, mouse Clec10a (Mus musculus, UniProt P49300); experiment: Mouse Clec10a-CD3ζ NFAT-GFP reporter cell assay; type: cell-based; details: for GFP expression in mouse Clec10a reporter cells: stimulation with coated plates, 18 hours, flow cytometry
T1 construct: an extracellular and transmembrane portions of Clec10a fused to a cytoplasmic portion of CD3; expressed in transfected cells; host or cells: 2B4-NFAT-GFP reporter cells, pMXs-puro retroviral vector
T1 sequence (P49300 57-304 limits assumed): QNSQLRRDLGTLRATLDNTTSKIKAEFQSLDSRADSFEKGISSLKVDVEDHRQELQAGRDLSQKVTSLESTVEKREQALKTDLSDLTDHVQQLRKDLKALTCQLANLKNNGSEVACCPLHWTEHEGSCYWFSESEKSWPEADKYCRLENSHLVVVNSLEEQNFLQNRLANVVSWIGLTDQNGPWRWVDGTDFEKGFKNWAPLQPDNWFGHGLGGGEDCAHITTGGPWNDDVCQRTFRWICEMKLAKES
Method: (§1) The intracellular region of human CD3ζ was obtained from a vector provided by LL Lanier (University of California, San Francisco). The extracellular region of mouse or human Clec10a or the extracellular region of human Asgr1 was subcloned into a pMXs-puro retroviral vector. 2B4-NFAT-GFP reporter cells were provided from H. Arase (University of Osaka). 2B4-NFAT-GFP reporter cells stably expressing mouse or human Clec10a were made as described previously. The reporter cells were incubated for 18 hours in the presence or absence of anti-Clec10a mAb, Lewis X (GlycoTech), Lewes Y (GlycoTech), galactose (Sigma-Aldrich), glucose (Sigma-Aldrich) or mannose (Sigma-Aldrich). The reporter cells were also cultured on a galactosidase (R & D Systems, 5704 GH or 5549 GH) or glucosidase (R & D Systems, 8329-GH), or Clec10 ligand-coated plate, or an HDM extract-coated plate treated with size-fractionated Clec10a ligand or untreated. Activation of NFAT-GFP was monitored by flow cytometry.
To test whether Clec10a recognized glycosylated proteins contained in HDM, NFAT-GFP reporter cells (Clec10a reporter cells) were made which expressed chimeric fusion proteins inch ling an extracellular and transmembrane portions of Clec10a fused to a cytoplasmic portion of CD3.

[2] = target: T2, Clec10a-Fc (Mus musculus, UniProt P49300); experiment: ELISA of Clec10a-Fc binding to glycan-coated plates; details: plates coated with Lewis X or Lewis Y
T2 construct: cloning the extracellular region of mouse Clec10a into a pME18S expression vector; made in house; host or cells: HEK293T cells
T2 sequence (P49300 57-304 limits assumed): T1 sequence (P49300 57-304 limits assumed)
Source text: A mouse Clec10a chimeric construct (Clec10a-Fc) was made by cloning the extracellular region of mouse Clec10a into a pME18S expression vector containing the Fc region of human IgG1. Clec10a-Fc was transfected into HEK293T cells using Lipofectamine 2000 (Thermo Fisher Scientific) and the medium was then replaced with GIT medium (KOHJIN BIO). Clec10a-Fc was purified from the culture supernatants using protein a agarose (Bio-Rad Laboratories).
An ELISA system with Clec10a applied to glycan-coated plates was constructed by a routine method to study the binding of each glycan with Clec10a. In the ELISA system, with the expectation that a multivalent effect is achieved by binding a plurality of glycans to the polymeric scaffold, the glycans were bound to the polymeric scaffold and presented to Clec10a. […]
A PBS solution containing 1 μg/well, 0.1 μg/well, or 0.01 μg/well of the polymeric scaffold presenting the glycans at the location “Sugar” of the above formula as described above (the modification rate was 20% as per the above formula) was introduced into a 96 well plate, and incubation was performed overnight at room temperature so that the wells were coated with the glycans. […] After 1-hour incubation at room temperature, the unbound Clec10a-Fc was washed, and Clec10a-Fc bound to the plate surface was quantified with peroxidase-labeled anti-Fc antibodies. […]

[3] = target: T2, Clec10a-Fc; experiment: Sugar conjugate (glycan) microarray analysis of Clec10a-Fc (Table 7); type: binding
Method: A sugar conjugate microarray containing 98 sugar conjugates (Table 3) was prepared according to a known method using a non-contact microarray printing robot (MicroSys 4000; Genomic Solutions).

[4] = tested on: human IgG1; experiment: Glycan microarray probed with human IgG1 (control of Table 7); type: binding
[5] = tested on: BMMP; experiment: Immunoprecipitation/immunoblot of SHP-1 recruitment to Clec10a in HDM-stimulated BMMP; type: cell-based, mouse; details: BMMP pretreated with Syk inhibitor, HDM extract 100 μg/mL
Method: To analyze association of Clec10a with Syk or SHP-1, BMMP was pretreated in the presence or absence of […] Syk inhibitor IV (Merck, 574714) at 37° C. for 30 minutes and stimulated with an HDM extract (100 μg/mL) at 37° C. for 0 min, 10 min, or 30 min. BMMP was lysed with a 0.2% digitonin buffer and immunoprecipitated with anti-Clec10a mAb. An immune precipitate was transferred onto a PVDF membrane as described above and immunoblotted using anti-Syk antibodies, anti-SHP-1 antibodies, or anti-Clec10a antibodies, and then detected with HRP-labeled anti-rabbit IgG antibodies or goat IgG antibodies. All proteins were detected using enhanced chemiluminescence (Thermo Fisher Scientific).

[6] = tested on: skin inflammation against lipopolysaccharides (LPS); experiment: LPS-induced skin inflammation, intradermal LPS with polymeric scaffold presenting T antigen; type: in vivo, mouse; details: 50 μg LPS and 20 μg T antigen scaffold intradermal daily, Day 5
Method: It was examined whether one of them, T antigen, could suppress skin inflammation against lipopolysaccharides (LPS). The polymeric scaffolds presenting 50 μg LPS and 20 μg T antigen were intradermally injected in the mouse back daily and the epidermal thickness was observed on Day 5. […] In the Clec10a-knockout mice, the epidermal thickness was equal to or greater than that in the WT.

[7] = target: T3, human Asgr1 (Homo sapiens, UniProt P07306); experiment: Human Asgr1-CD3ζ NFAT-GFP reporter cell assay; type: cell-based
T3 construct: the extracellular region of human Asgr1 was subcloned into a pMXs-puro retroviral vector; expressed in transfected cells
T3 sequence (P07306 62-291 limits assumed): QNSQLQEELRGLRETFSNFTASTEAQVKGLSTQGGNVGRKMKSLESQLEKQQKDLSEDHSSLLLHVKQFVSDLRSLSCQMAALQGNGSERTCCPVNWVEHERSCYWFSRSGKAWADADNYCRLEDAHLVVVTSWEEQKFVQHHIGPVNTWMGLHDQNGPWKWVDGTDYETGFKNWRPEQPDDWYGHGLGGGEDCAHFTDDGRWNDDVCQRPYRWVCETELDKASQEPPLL
Method: as §1
(§2) The hemITAM sequence (YxxL) was not found in human Clec10a and could only be found in human Asgr1 (see panel c in FIG. 4). […] Upon confirmation of protein expression, human Asgr1 expressed in MP in the human skin, similarly to Clec10a expression in the mouse skin (see panel e in FIG. 4). […]

[8] = target: T4, human Clec10a (Homo sapiens, UniProt Q8IUN9); experiment: Human Clec10a-CD3ζ NFAT-GFP reporter cell assay; type: cell-based; details: addition of sugar, HDM-coated plates
T4 construct: The extracellular region of mouse or human Clec10a or the extracellular region of human Asgr1 was subcloned; expressed in transfected cells; host or cells: 2B4-NFAT-GFP reporter cells, pMXs-puro retroviral vector
T4 sequence (Q8IUN9 61-316 limits assumed): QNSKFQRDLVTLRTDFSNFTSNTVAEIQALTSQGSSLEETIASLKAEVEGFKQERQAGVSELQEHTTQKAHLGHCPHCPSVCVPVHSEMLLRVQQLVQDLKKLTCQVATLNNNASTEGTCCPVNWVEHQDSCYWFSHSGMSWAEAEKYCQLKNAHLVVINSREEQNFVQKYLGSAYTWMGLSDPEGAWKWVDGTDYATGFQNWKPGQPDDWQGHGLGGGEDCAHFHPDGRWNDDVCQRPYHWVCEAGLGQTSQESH
Method: as §1, §2

GFP expression in mouse Clec10a reporter cells [1]: did not respond
Binding of Clec10a-Fc to coated plates (ELISA) [2]: not bound
Signal value, Clec10a-Fc ([3]; glycan microarray probed with Clec10a-Fc): 0
Signal value, Clec10a-Fc with EDTA ([3]; glycan microarray probed with Clec10a-Fc with EDTA): 0
SMILES: CC(=O)N[C@@H]1[C@@H](O[C@@H]2O[C@@H](C)[C@@H](O)[C@@H](O)[C@@H]2O)[C@H](O[C@@H]2O[C@H](CO)[C@H](O)[C@H](O)[C@H]2O[C@@H]2O[C@@H](C)[C@@H](O)[C@@H](O)[C@@H]2O)[C@@H](CO)O[C@H]1O [Lewis Y, reference compound]
Signal value, human IgG1 [4]: 0

SMILES: COc1ccc(-c2cc3nccn3c(Nc3ncccc3C(N)=O)n2)cc1OC [Syk inhibitor IV]
Recruitment of HDM-induced SHP-1 to Clec10a [5]: suppressed the recruitment of HDM-induced SHP-1 to Clec10a

Binding of Clec10a-Fc in glycan microarray ([3]; Clec10a-Fc 10 μg/mL): binds
SMILES: CC(=O)N[C@H]1C(O)O[C@H](CO)[C@H](O)[C@@H]1O[C@@H]1O[C@H](CO)[C@H](O)[C@H](O)[C@H]1O (some centres unmarked) [T antigen, Galβ(1-3)GalNAc]
GFP expression in mouse Clec10a reporter cells [1]: activated Clec10a in a dose-dependent manner
Epidermal thickness ([6]; Clec10a knockout mice): epidermal thickness suppressive effect of the T antigen was not observed
Epidermal thickness ([6]; WT mice): increase in thickness of the skin by LPS was suppressed

Inhibition of HDM-induced GFP expression in mouse Clec10a reporter cells ([1]; pretreatment of the reporter cells, HDM-coated plates): inhibited GFP expression
Inhibition of HDM-induced GFP expression in human Clec10a reporter cells [8]: only in the Asgr1 reporter cells
SMILES: O=C[C@H](O)[C@@H](O)[C@@H](O)[C@H](O)CO [galactose]
Offset of Clec10a ligand-induced activation of human Asgr1 reporter cells ([7]; addition of galactose to the system): offset, in a concentration dependent manner
Inhibition of HDM-induced GFP expression in human Asgr1 reporter cells ([7]; addition of sugar, HDM-coated plates): inhibited the expression of GFP induced by HDM
